The record followed here is publication PMC6155728, “Design, Synthesis and Evaluation of Indene Derivatives as Retinoic Acid Receptor α Agonists” (Molecules : A Journal of Synthetic Chemistry and Natural …, 2016).

SMILES strings stand for the structures. pEC50, pIC50: −log10 of the molar value. Where “and” joins values, the source holds several entries; their conditions need not be identical. Equal entries are not always repeated. Where two headings read alike, the source gives them in different places.

The subject of data set [1] is HL60 cells. In words: Inhibition of cell proliferation assay (SRB), HL60. The data set is classed as cell-based. The following applies: Homo sapiens, read-out: IC50 cell proliferation HL60. The procedure:
(§1) Human promyelocytic leukemia cell lines HL60 and NB4 were employed to determine the effects of the derivatives on cell proliferation. […] Alkoxy-substitution at the 2-position (i.e., compounds 36f, 36g) harmed the cell proliferation inhibitory activity of the compounds in both cell lines while the isopropyl group at the same position (compound 36h) is favourable. The extension of the π system by an alkenyl bond or a ketone group, as in 36j–l, didn’t affect the compounds’ inhibitory activity in HL60 cells but nulified their activity in NB4 cells. The indene ring tolerates the dual-introduction of a small alkoxyl and an alkyl group at 1- and 2-position, respectively, to retain the antiproliferative activity in HL60 cells.
(§2) Cells were seeded in 96-well plates (Corning Inc.) with a density of 2500 cells (NB4 or HL60) per well for overnight. Then, cells were exposed to each of the test compounds 36a–36p in gradient concentration of 10^−9, 10^−8, 10^−7, 10^−6, 10^−5 mol/L. Control cultures were treated with the same volume of DMSO. After 72 hours of incubation, the cell density in each well were fixed by trichloroacetic acid and then measured using the SRB (sulforhodamine B) method. After rinsing, the SRB was solubilized in TrisHCl, and the optical density of each culture was determined with a Bio-Tek Elx 800 absorbance microplate reader (BioTek, Shoreline, WA, USA). The OD of the treated cultures was divided by that of the control cultures treated with solvent alone.

Data set [2] concerns the target T1, RARα (RAR alpha LBD-GST) (Homo sapiens, UniProt P10276).
T1 construct: A mixture of 5 nM RAR alpha LBD-GST, 5 nM TbAnti-GST antibody, 50 nM Fluorescein-D22 was added to the wells; purchased Invitrogen
T1 sequence (P10276 183-417 limits assumed): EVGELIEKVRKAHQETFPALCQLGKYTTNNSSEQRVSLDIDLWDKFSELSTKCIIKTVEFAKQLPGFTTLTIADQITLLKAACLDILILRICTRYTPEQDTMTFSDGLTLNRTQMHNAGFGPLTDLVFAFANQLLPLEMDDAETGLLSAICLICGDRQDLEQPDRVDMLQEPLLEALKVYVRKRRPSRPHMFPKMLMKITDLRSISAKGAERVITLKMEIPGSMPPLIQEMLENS
In words: Receptor binding assay (LanthaScreen TR-FRET RAR alpha Coactivator Assay). Particulars: 1 h incubation, AM80 positive control, read-out: RARα binding affinity EC50. The procedure:
The obtained target compounds were tested for their binding affinities to RARα using a time resolved fluorescence resonance energy transfer (TR-FRET) assay with AM80 as the positive control.
All synthesized compounds were tested for their binding affinity by using time resolved fluorescence resonance energy transfer (TR-FRET) assay, which used a LanthaScreen® TR-FRET RAR alpha Coactivator Assay Kit (Invitrogen, Carlsbad, CA, USA). Briefly, all experiments were performed in black 384-well low-volume plates (Corning Inc., Corning, NY, USA) in dark at room temperature. The final assay volume was 20 μL. All dilutions were made in assay buffer (TR-FRET Coregulator Buffer D). The final DMSO concentration was 1%. A mixture of 5 nM RAR alpha LBD-GST, 5 nM TbAnti-GST antibody, 50 nM Fluorescein-D22 was added to the wells. The only variable is the agonist concentration (6.1 × 10^−11~1.0 × 10^−6 M final concentrations of each retinoid). […] Data were analyzed by using GraphPad Prism software (GraphPad Software, Inc., La Jolla, CA, USA) and FRET signal was determined for all treatments by dividing 520 nm/495 nm signals. Graphs plotted as fold change of FRET signal for compounds treatment over DMSO only treatment.

Data set [3] concerns NB4 cells. Kind of data set: Inhibition of cell proliferation assay (SRB), NB4. It counts as cell-based, human. Particulars: read-out: IC50 cell proliferation NB4. The procedure:
as §1, §2

Data set [4] has as its system HL60 cells. Kind of data set: Cell differentiation assay (CD11b, FACS), HL60. It counts as cell-based, human. The procedure:
(§3) The effects of 36a–g on the differentiation of HL60 and NB4 cells were then assessed.
(§4) Cells (1 × 10^6/mL) were treated with compounds at different concentrations based on IC50 in Table 2 […]. After the treatment, cells were washed twice with PBS and then fixed with 75% alcohol overnight at −20 °C. The fixed cells were washed with PBS and blocked with 95 μL 3% BSA in PBS for 45 min at room temperature. The cells were incubated with 5 μL CD11b-PE at 4 °C for 45 min with protection from light. The antigens were then determined by a FACSCalibur flow cytometer (BD Biosciences Pharmingen, San Diego, CA, USA). The percentages of positive cells were quantitated using CellQuest Pro software. Cells stained with mouse IgG-PE served as negative controls. Both CD11b-PE and mouse IgG-PE antibodies were purchased from BD Biosciences. At least 10,000 cells were analyzed for each data point.

Data set [5] deals with NB4 cells. Kind of data set: Cell differentiation assay (CD11b, FACS), NB4. It counts as cell-based, human. The procedure:
as §3, §4

[6] abbreviates: HL-60, HL60 cells, 72 hours, SRB.
[7] abbreviates: Homo sapiens, NB-4, 72 h, NB4 cells, 72 hours, SRB.

As a reminder, the melting point is the temperature, or range, at which the solid turns liquid. By pEC50 is commonly meant the EC50 on a negative log10 scale, so that one unit is a factor of ten. Turning to `COC1CCc2ccc(NC(=O)c3ccc(C(=O)O)cc3)cc21` (stereo not drawn) [Compound 36b, 4-((3-Methoxy-2,3-dihydro-1H-inden-5-yl)carbamoyl)benzoic acid], the melting point is above 250 °C. The pIC50 in data set [1] (setting [6]) was 6.89. Moreover, in data set [2], the pEC50 is 6.89. Moreover, in data set [3] (setting [7]), the pIC50 was 4.45.

For the compound `CCOC1c2cc(NC(=O)c3ccc(C(=O)O)cc3)ccc2CC1C` (stereo not drawn) [Compound 36n, 4-((3-Ethoxy-2-methyl-2,3-dihydro-1H-inden-5-yl)carbamoyl)benzoic acid], the melting point is above 250 °C. In addition, the pIC50 in data set [1] (setting [6]) was 6.10. In addition, in data set [2], the pEC50 was 6.84. Besides, the pIC50 in data set [3] (setting [7]) was 5.07.

Compound `CC(C)C1=Cc2cc(NC(=O)c3ccc(C(=O)O)cc3)ccc2C1` [Compound 36j, 4-((2-Isopropyl-1H-inden-5-yl)carbamoyl)benzoic acid] gave a melting point above 250 °C. The pIC50 in data set [1] (setting [6]) was 5.63. Moreover, in data set [2], the negative-log EC50 (pEC50) is 8.45. In addition, the pIC50 in data set [3] (setting [7]) is below 4.30.

In turn, `CC(C)C1Cc2ccc(NC(=O)c3ccc(C(=O)O)cc3)cc2C1=O` (stereo not drawn) [Compound 36l, 4-((2-Isopropyl-3-oxo-2,3-dihydro-1H-inden-5-yl)carbamoyl)benzoic acid] registered a melting point above 250 °C. For the same compound, in data set [1] (setting [6]), the pIC50 is 5.68. In data set [2], the negative-log EC50 (pEC50) is 8.33. In addition, in data set [3] (setting [7]), the pIC50 is 4.43.

On to `COC1c2cc(NC(=O)c3ccc(C(=O)O)cc3)ccc2CC1C(C)C` (stereo not drawn) [Compound 36o, 4-((2-Isopropyl-3-methoxy-2,3-dihydro-1H-inden-5-yl)carbamoyl)benzoic acid], for which the melting point was above 250 °C. Besides, the pIC50 in data set [1] (setting [6]) is 5.63. Further, in data set [2], the negative logarithm of the EC50 (pEC50) is 8.41. For the same compound, in data set [3] (setting [7]), the pIC50 is below 4.30.

As to `CCOC1c2cc(NC(=O)c3ccc(C(=O)O)cc3)ccc2CC1C(C)C` (stereo not drawn) [Compound 36p, 4-((3-Ethoxy-2-isopropyl-2,3-dihydro-1H-inden-5-yl)carbamoyl)benzoic acid], the melting point is above 250 °C. For the same compound, in data set [1] (setting [6]), the pIC50 was 5.95. For the same compound, the pEC50 in data set [2] was 8.04. The pIC50 in data set [3] (setting [7]) was 5.12.

`COC1Cc2ccc(NC(=O)c3ccc(C(=O)O)cc3)cc2C1` (stereo not drawn) [Compound 36f, 4-((2-Methoxy-2,3-dihydro-1H-inden-5-yl)carbamoyl)benzoic acid] yielded a melting point above 250 °C. Besides, the pIC50 in data set [1] (setting [6]) was below 4.30. Further, in data set [2], the pEC50 is below 6.00. In addition, in data set [3] (setting [7]), the pIC50 is below 4.30.

Take `CCOC1Cc2ccc(NC(=O)c3ccc(C(=O)O)cc3)cc2C1` (stereo not drawn) [Compound 36g, 4-((2-Ethoxy-2,3-dihydro-1H-inden-5-yl)carbamoyl)benzoic acid]: the melting point is above 250 °C. In addition, in data set [1] (setting [6]), the pIC50 was below 4.30. The “CD11b (%) HL60” value in data set [4] (50 μM) is listed as 5.82 (50 μM) %. Further, the negative-log EC50 (pEC50) in data set [2] was below 6.00. Besides, the pIC50 in data set [3] (setting [7]) was 4.66. The “CD11b (%) NB4” value in data set [5] (20 μM) is reported as 0.49 (20 μM) %.

For the compound `CCCCOC1CCc2ccc(NC(=O)c3ccc(C(=O)O)cc3)cc21` (stereo not drawn) [Compound 36e, 4-((3-Butoxy-2,3-dihydro-1H-inden-5-yl)carbamoyl)benzoic acid], the melting point is above 250 °C. Further, the pIC50 in data set [1] (setting [6]) is below 4.30. Besides, the “CD11b (%) HL60” value in data set [4] (50 μM) is given as 2.87 (50 μM) %. Further, in data set [2], the pEC50 was 7.83. Moreover, in data set [5] (5 μM), the “CD11b (%) NB4” value is 15.42 (5 μM) %.

On to `CCOC1CCc2ccc(NC(=O)c3ccc(C(=O)O)cc3)cc21` (stereo not drawn) [Compound 36c], for which the melting point is above 250 °C.

`O=C(O)c1ccc(C(=O)Nc2ccc3c(c2)CCC3)cc1` [Compound 36a, 4-((2,3-Dihydro-1H-inden-5-yl)carbamoyl)benzoic acid] gave a melting point above 250 °C. Further, in data set [1] (setting [6]), the pIC50 is below 4.30. Besides, the “CD11b (%) HL60” value in data set [4] (50 μM) is 1.13 (50 μM) %. The pEC50 in data set [2] was 7.92. For the same compound, in data set [3] (setting [7]), the pIC50 was 5.16. In addition, in data set [5] (5 μM), the “CD11b (%) NB4” value was 0.97 (5 μM) %.

Regarding `CC1=Cc2cc(NC(=O)c3ccc(C(=O)O)cc3)ccc2C1` [Compound 36i, 4-((2-Methyl-1H-inden-5-yl)carbamoyl)benzoic acid], the melting point is above 250 °C. The pIC50 in data set [1] (setting [6]) is below 4.30. Besides, in data set [2], the pEC50 is 7.85. In addition, in data set [3] (setting [7]), the pIC50 was below 4.30.

For the compound `COC1c2cc(NC(=O)c3ccc(C(=O)O)cc3)ccc2CC1C` (stereo not drawn) [Compound 36m, 4-((3-Methoxy-2-methyl-2,3-dihydro-1H-inden-5-yl)carbamoyl)benzoic acid], the melting point was above 250 °C. In data set [1] (setting [6]), the pIC50 was 6.37. Moreover, in data set [2], the pEC50 is 6.53. The pIC50 in data set [3] (setting [7]) was below 4.30.

Turning to `CC1Cc2ccc(NC(=O)c3ccc(C(=O)O)cc3)cc2C1=O` (stereo not drawn) [Compound 36k, 4-((2-Methyl-3-oxo-2,3-dihydro-1H-inden-5-yl)carbamoyl)benzoic acid], the melting point was above 250 °C. The pIC50 in data set [1] (setting [6]) was 5.58. Further, the pIC50 in data set [3] (setting [7]) is below 4.30.

Regarding `CC(C)OC1CCc2ccc(NC(=O)c3ccc(C(=O)O)cc3)cc21` (stereo not drawn) [Compound 36d, 4-((3-Isopropoxy-2,3-dihydro-1H-inden-5-yl)carbamoyl)benzoic acid], the melting point is above 250 °C. The pIC50 in data set [1] (setting [6]) was below 4.30. Besides, the “CD11b (%) HL60” value in data set [4] (50 μM) is on record as 3.77 (50 μM) %. For the same compound, the pEC50 in data set [2] is 7.62. Further, the pIC50 in data set [3] (setting [7]) is 5.39 to 5.73. In data set [3] (NB4 cells, 72 hours, SRB), the pIC50 was 5.73. Also, in data set [5] (5 μM), the “CD11b (%) NB4” value is 68.88% and 68.88 (5 μM) %.

Take `CC(C)C1Cc2ccc(NC(=O)c3ccc(C(=O)O)cc3)cc2C1` (stereo not drawn) [Compound 36h, 4-((2-Isopropyl-2,3-dihydro-1H-inden-5-yl)carbamoyl)benzoic acid]: the melting point was above 250 °C. The pIC50 in data set [1] (setting [6]) is 6.04. Moreover, the pEC50 in data set [2] is 7.37. The pIC50 in data set [3] (setting [7]) is 5.58.

For the compound `CC1(C)CCC(C)(C)c2cc(NC(=O)c3ccc(C(=O)O)cc3)ccc21` [AM80, reference compound], the pIC50 was 6.77 in data set [1] (HL-60, 72 h) and 4.88 in data set [3] (Homo sapiens, NB-4, 72 h). The “CD11b (%) HL60” value in data set [4] (10 μM) is listed as 4.59 (10 μM) %. Moreover, the “CD11b (%) NB4” value in data set [5] (10 μM) is recorded as 94.93 (10 μM) %.
